Experimental data published in patent US5608095A, “Alkyl-4-silyl-phenols and esters thereof as antiatherosclerotic agents” (Hoechst Marion Roussel, Inc., priority 1996, dated 1997).
Like-named read-outs stand apart in the source and are kept apart here.

What was measured:
[1] = Animal parameters (food, body weight, liver weight, mortality) in rats; assay type: in vivo, male Sprague-Dawley rats; conditions: 4 days; for mortality at 96 h: in vivo, po, read-out: mortality (deaths per group); for mortality at 96 h / body wt., percent of control / lw/bw (liver weight/body weight), percent of control: rat
From the text: (§1) A typical experiment consisted of 4-6 groups of rats (N=5 per group) with 1 group being a control which received no MDL compound and the other groups being treated with 0.3% MDL compound. Some of the compounds were either repeated at 0.3% or evaluated again at the lower dose of 0.1%. Male Sprague-Dawley rats, 50-100 g, (Harlan Laboratories, Indianapolis, Ind.) were housed in groups of 5, fed ad libitum water and Purina Rodent chow (#5002) with or without MDL compound as a dietary admixture for 4 days. Dietary admixtures (0.3%) were made by mixing 1.2 grams of an MDL compound with 400 grams of Purina rodent chow (#5002). The MDL compound was mixed with approximately 50 grams of food using a mortar and pestle. This was added to the remainder of the food and mixed for 3 hours on a rotary mixer. In the morning of day 5, non-fasted rats were anesthetized with carbon dioxide, and blood was collected by cardiac puncture. Rats were sacrificed by cervical dislocation. Body weights and liver weights were recorded in grams. Food consumption was recorded as grams.cndot.day^-1.cndot.rat^-1. Deaths were recorded as mortality. Aliquots of fresh serum were used for clinical chemistries, thiobarbituric acid reactive substances (TBARS) and conjugated diene measurements. Aliquots of serum (~0.5mL) and whole livers were frozen at -20° C. for compound and metabolite concentration determination at a later time.

[2] = HPLC quantitation of compound and metabolite concentration in rat serum and liver; assay type: in vivo, male Sprague-Dawley rats; conditions: 4 days; for concentration at 96 h: po
From the text: as §1
Serum and liver concentrations of parent compound and the metabolites, bisphenol and diphenoquinone, were determined by reverse phase HPLC using a Waters 990 Powerline system. Livers (1 gram samples) were homogenized with 5.0 mL PBS, pH 7.4, using a Polytron tissue homogenizer at setting 5 for 20-30 seconds. Serum or liver homogenates were extracted as follows: 100μL of either serum or homogenate were added to 2.0 mL diethyl ether:ethanol (3:1) while vortexing the tube. The sample tubes were capped and centrifuged for 10 min at 5° C. at 3500 rpm in a Beckman GPKR centrifuge with a GH 3.7 rotor. The supernatants were transferred to clean tubes and dried under N2. Samples were reconstituted with 200 μL of acetonitrile:hexane:0.1M ammonium acetate (90:6.5:3.5, by vol.). Then, 100 μL were injected onto a Waters Deltapak C18-300 Å column, and eluted with an 83% acetonitrile:17% water mobile phase at a flow rate of 1.5 mL/min. Absorbances at the wavelengths of 240, 254, and 420 nm were recorded. Compound concentrations were calculated from known quantities of authentic parent compounds after correction for recovery; the range of recovery from spiked samples was 40 to 100%. The lowest detectable limit for this class of compounds was ~0.5 μg/mL. […]. Concentrations were calculated as μg/mL of serum and μg/g of liver.

[3] = Food consumption, body and liver weight in cholesterol-fed rabbits; assay type: in vivo, female New Zealand White rabbits; conditions: for body wt., percent of control / lw/bw (liver weight/body weight), percent of control: rabbit
Outline: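 Female New Zealand White rabbits fed 100 g/day of 0.2% cholesterol chow sprayed with compound (mostly 0.4%; some at 0.26% or 0.6%) from ethanol or diethyl ether:ethanol 3:2, for 7 days (14 days at 0.6%). Daily food intake, terminal body and liver weights recorded in grams.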

[4] = rat liver, diet 0.3%, read-out: Liver Parent = parent compound concentration
[5] = rat serum, diet 0.3%, read-out: Serum Parent = parent compound concentration
[6] = rat liver, diet 0.1%, read-out: Liver Parent = parent compound concentration
[7] = rat serum, diet 0.1%, read-out: Serum Parent = parent compound concentration

| Compound | food (grams eaten per day per rat), percent of control ([1]; diet 0.3%) [%] | mortality at 96 h ([1]; diet 0.3%) [%] | body wt., percent of control ([1]; diet 0.3%) [%] | lw/bw (liver weight/body weight), percent of control ([1]; diet 0.3%) [%] | Liver Parent = parent compound concentration ([2]; rat liver, diet 0.3%) [µg/g] | Serum Parent = parent compound concentration ([2]; rat serum, diet 0.3%) [µg/mL] | concentration at 96 h [2, 4] [ng/g] | concentration at 96 h [2, 5] [ng/mL] | food (grams eaten per day per rat), percent of control ([1]; diet 0.1%) [%] | mortality at 96 h ([1]; diet 0.1%) [%] | body wt., percent of control ([1]; diet 0.1%) [%] | lw/bw (liver weight/body weight), percent of control ([1]; diet 0.1%) [%] | food (grams eaten per day per rabbit), percent of control ([3]; diet 0.4%, 7 days) [%] | body wt., percent of control ([3]; diet 0.4%, 7 days) [%] | lw/bw (liver weight/body weight), percent of control ([3]; diet 0.4%, 7 days) [%] | also measured |
| --- | --- | --- | --- | --- | --- | --- | --- | --- | --- | --- | --- | --- | --- | --- | --- | --- |
| CC(C)(C)c1cc(OC[Si](C)(C)c2ccccc2)cc(C(C)(C)C)c1OC(=O)CCC(=O)O [MDL 103,076, 2,6-Di-t-butyl-4-[(dimethylphenylsilyl)methyloxy]phenol succinic acid ester] | 93 | 0 | 105 | 110 | 0 | 0 |  |  |  |  |  |  |  |  |  |  |
| CC(C)(C)c1cc(SC[Si](C)(C)c2ccccc2)cc(C(C)(C)C)c1OC(=O)CCC(=O)O [MDL 103,141, 2,6-Di-t-butyl-4-[(dimethylphenylsilyl)methylthio]phenol sucinic acid ester] | 87 | 0 | 91 | 96 | 0 | 0 |  |  |  |  |  |  |  |  |  |  |
| CC(=O)Oc1c(C(C)(C)C)cc(OC[Si](C)(C)c2ccccc2)cc1C(C)(C)C [MDL 103,377, 2,6-Di-t-butyl-4-[(dimethylphenylsilyl)methyloxy]phenol acetic acid ester] | 82 | 0 | 97 | 105 |  |  | 22200 | 7720 |  |  |  |  |  |  |  |  |
| CC(C)(C)c1cc(OC[Si](C)(C)c2ccccc2)ccc1O [MDL 103,491, 2-t-Butyl-4-[(dimethylphenylsilyl)methyloxy]phenol] | 89 | 0 | 100 | 130 | 0 |  |  | 3000 | 92 | 0 | 95 | 106 | 100 | 100 | 89 | Liver Parent = parent compound concentration ([2]; rat liver, diet 0.1%): 0 µg/g; Serum Parent = parent compound concentration ([2]; rat serum, diet 0.1%): 0 µg/mL; food (grams eaten per day per rabbit), percent of control ([3]; diet 0.6%, 14 days): 80%; body wt., percent of control ([3]; diet 0.6%, 14 days): 95%; lw/bw (liver weight/body weight), percent of control ([3]; diet 0.6%, 14 days): 96% |
| CN(C)c1ccc([Si](C)(C)COc2cc(C(C)(C)C)c(O)c(C(C)(C)C)c2)cc1 [MDL 104,556, 2,6-Di-t-butyl-4-[(4-N,N-dimethylaminophenyldimethylsilyl)methyloxy]phenol] | 68 | 0 | 87 | 120 |  |  | 60300 | 16300 | 102 | 0 | 103 | 106 | 100 | 97 | 96 | concentration at 96 h [2, 6]: 38700 ng/g; concentration at 96 h [2, 7]: 9200 ng/mL |
| CC(C)(C)c1cc(OC[Si](C)(c2ccccc2)c2ccccc2)cc(C(C)(C)C)c1O [MDL 104,599, 2,6-Di-t-butyl-4-[(diphenylmethylsilyl)methloxy]phenol] | 103 | 0 | 93 | 107 |  |  | 44900 | 28300 |  |  |  |  | 98 | 99 | 86 |  |
| CC(C)(C)c1cc(OC[Si](C)(C)c2ccccc2)c(C(C)(C)C)cc1O [MDL 104,962, 2,5-Di-t-butyl-4-[(dimethylphenylsilyl)methyloxy]phenol] | 74 | 0 | 95 | 103 |  |  | 43500 | 16400 |  |  |  |  | 69 | 97 | 71 |  |
| Cc1cc(OC[Si](C)(C)c2ccccc2)c(C)c(C)c1O [MDL 105,314, 2,3,6-Trimethyl-4-[(dimethylphenylsdilyl)methloxy]phenol] | 109 | 0 | 111 | 118 | 0.0 | 0.0 |  |  |  |  |  |  |  |  |  |  |
| CC(=O)Oc1ccc(OC[Si](C)(C)c2ccccc2)cc1C(C)(C)C [MDL 105,443, 2-t-Butyl-4-[(dimethylphenylsilyl)methyloxy]phenol acetic acid ester] | 84 | 0 | 95 | 118 | 0 | 0.0 |  |  | 100 | 0 | 101 | 110 | 100 | 101 | 90 | Liver Parent = parent compound concentration ([2]; rat liver, diet 0.1%): 0 µg/g; Serum Parent = parent compound concentration ([2]; rat serum, diet 0.1%): 0 µg/mL |
| CC(C)(C)c1cc(OC[Si](C)(C)c2ccc(C(F)(F)F)cc2)cc(C(C)(C)C)c1O [MDL 105,975, 2,6-Di-t-butyl-4-[(dimethyl-4-trifluoromethylphenylsilyl)methyloxy]phenol] | 98 | 0 | 100 | 113 |  |  | 186000 | 35800 | 106 | 0 | 98 | 105 | 100 | 101 | 108 | concentration at 96 h [2, 6]: 94500 ng/g; concentration at 96 h [2, 7]: 23800 ng/mL |
| COc1ccc([Si](C)(C)COc2ccc(O)c(C(C)(C)C)c2)cc1 [MDL 106,834, 2-t-Butyl-4-[(dimethyl-p-methoxylphenylsilyl)methyloxy]phenol] | 91 | 0 | 95 | 132 |  |  | 2700 | 1800 |  |  |  |  | 99 | 99 | 94 |  |
